Measurements as given in US11992297B2, “Monitoring method of heart rate for toxicity test using high-speed digital holography” (KOREA RESEARCH INSTITUTE OF STANDARDS AND SCIENCE, priority 2020, dated 2024).
Like-named read-outs stand apart in the source and are kept apart here.

Experiments:
water flea [1] = conditions: for change of heart rate (final RHR) relative to the original heart rate (OHR) / decrease of heart rate (final RHR) relative to the original heart rate (OHR): FIG. 7 (C); for decrease of heart rate (final RHR) relative to the original heart rate (OHR): normalized for initial RHR; for relaxation heart rate (RHR) 0 hr / relaxation heart rate (RHR) 24 hr: average ± SD; for RHR normalization relative to 0 hr: 24 hr relative to 0 hr; for heart rate decrease after 24 hours (normalized average RHR): FIG. 8 (B),(C)
Procedure: In the individual response evaluation apparatus, an extra-axial digital holography method was used to take a hologram of the water flea with a CCD camera.
The heart rate of the water flea was analyzed by the reconstructed time-resolved phase distributions, from the heart rate signal obtained by the method.
A Fourier spectrum method was used for evaluating periodic characteristics in heart rate analysis. In (C) of FIG. 5, a one-dimensional Fourier spectrum method was used for each pixel of 1000 frame sets to calculate a two-dimensional frequency distribution of the water flea.
2 hours after the observation, 19 mL of hydrogen peroxide having concentrations of 0.00 mM, 0.03 mM, and 0.06 mM, respectively was each mixed for each experiment to perform the experiment repeatedly so that the water flea is exposed to the hydrogen peroxide. At this time, in a negative control group of 0.00 mM treatment, 10 mL of an M4 medium was further mixed for unifying volume.
Upon observation, the heart rate analysis was performed by dividing the section into those before and after exposure to hydrogen peroxide.
In order to express the heart rate trend of (B) of FIG. 7, in (A) of FIG. 7, an original heart rate (OHR) was flattened every 30 minutes by a moving average method.

water flea [2] = conditions: 0.06 mM-treated test group versus 0.03 mM-treated group; FIG. 8 (d)
[3] = 0.03 mM hydrogen peroxide, Group (N=3)
[4] = 0.03 mM hydrogen peroxide, specimen #4
[5] = 0.03 mM hydrogen peroxide, specimen #5
[6] = 0.03 mM hydrogen peroxide, specimen #6
[7] = 0.06 mM hydrogen peroxide, Group (N=3)
[8] = 0.06 mM hydrogen peroxide, specimen #7
[9] = 0.06 mM hydrogen peroxide, specimen #8
[10] = 0.06 mM hydrogen peroxide, specimen #9

RHR normalization relative to 0 hr (water flea [1]; [3]): 92.84 ± 5.60%
RHR normalization relative to 0 hr (water flea [1]; [4]): 90.42 ± 4.74%
RHR normalization relative to 0 hr (water flea [1]; [5]): 96.72 ± 1.78%
RHR normalization relative to 0 hr (water flea [1]; [6]): 91.42 ± 6.94%
RHR normalization relative to 0 hr (water flea [1]; [7]): 73.96 ± 5.61%
RHR normalization relative to 0 hr (water flea [1]; [8]): 74.26 ± 4.33%
RHR normalization relative to 0 hr (water flea [1]; [9]): 79.13 ± 3.88%
RHR normalization relative to 0 hr (water flea [1]; [10]): 68.47 ± 1.93%
reactive oxygen species (ROS) level, times higher than the 0.03 mM-treated group (water flea [2]): 7.8 times
Structure (SMILES): OO [hydrogen peroxide]
change of heart rate (final RHR) relative to the original heart rate (OHR) (water flea [1]; 0.03 mM hydrogen peroxide): −13 BPM
decrease of heart rate (final RHR) relative to the original heart rate (OHR) (water flea [1]; 0.03 mM hydrogen peroxide): 3.3%
relaxation heart rate (RHR) 0 hr (water flea [1]; [3]): 366.81 ± 20.43 BPM
relaxation heart rate (RHR) 24 hr (water flea [1]; [3]): 340.33 ± 21.98 BPM
relaxation heart rate (RHR) 0 hr (water flea [1]; [4]): 363.22 ± 12.11 BPM
relaxation heart rate (RHR) 24 hr (water flea [1]; [4]): 328.43 ± 18.01 BPM
relaxation heart rate (RHR) 0 hr (water flea [1]; [5]): 350.78 ± 20.23 BPM
relaxation heart rate (RHR) 24 hr (water flea [1]; [5]): 339.28 ± 6.54 BPM
relaxation heart rate (RHR) 0 hr (water flea [1]; [6]): 486.43 ± 6.63 BPM
relaxation heart rate (RHR) 24 hr (water flea [1]; [6]): 353.28 ± 27.98 BPM
heart rate decrease after 24 hours (normalized average RHR) (water flea [1]; 0.03 mM-treated test group): 7.16%
change of heart rate (final RHR) relative to the original heart rate (OHR) (water flea [1]; 0.06 mM hydrogen peroxide): −109 BPM
decrease of heart rate (final RHR) relative to the original heart rate (OHR) (water flea [1]; 0.06 mM hydrogen peroxide): 22.7%
relaxation heart rate (RHR) 0 hr (water flea [1]; [7]): 383.81 ± 12.99 BPM
relaxation heart rate (RHR) 24 hr (water flea [1]; [7]): 279.05 ± 12.71 BPM
relaxation heart rate (RHR) 0 hr (water flea [1]; [8]): 370.07 ± 25.38 BPM
relaxation heart rate (RHR) 24 hr (water flea [1]; [8]): 274.82 ± 16.01 BPM
relaxation heart rate (RHR) 0 hr (water flea [1]; [9]): 378.43 ± 15.41 BPM
relaxation heart rate (RHR) 24 hr (water flea [1]; [9]): 299.47 ± 14.70 BPM
relaxation heart rate (RHR) 0 hr (water flea [1]; [10]): 383.90 ± 13.02 BPM
relaxation heart rate (RHR) 24 hr (water flea [1]; [10]): 262.87 ± 7.41 BPM
heart rate decrease after 24 hours (normalized average RHR) (water flea [1]; 0.06 mM-treated test group): 25.97%
